# In PubChem BioAssay (NCI):
#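 Growth conditions: 96-well plates. Treatment: test compound, 48 hours, 5 concentrations. Analysis: linear interpolation between bracketing concentrations; unreached endpoints set to highest concentration. Abbreviation: GI50, concentration required for 50% inhibition of growth. Definition used: TGI = concentration required for complete inhibition of growth.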
# Key:
# Assay in all cases: DTP human tumour cell line panel, 48 h
# M14 melanoma = system: M14 melanoma
# NCI-H23 lung = system: NCI-H23 lung
# OVCAR-3 ovarian = system: OVCAR-3 ovarian
# OVCAR-8 ovarian = system: OVCAR-8 ovarian
# SF-295 CNS = system: SF-295 CNS
# SK-MEL-2 melanoma = system: SK-MEL-2 melanoma
# SK-MEL-28 melanoma = system: SK-MEL-28 melanoma
# SNB-75 CNS = system: SNB-75 CNS
# UACC-62 melanoma = system: UACC-62 melanoma
# MOLT-4 leukemia = system: MOLT-4 leukemia
SMILES,TGI (M14 melanoma) [µM],TGI (NCI-H23 lung) [µM],TGI (OVCAR-3 ovarian) [µM],TGI (OVCAR-8 ovarian) [µM],TGI (SF-295 CNS) [µM],TGI (SK-MEL-2 melanoma) [µM],TGI (SK-MEL-28 melanoma) [µM],TGI (SNB-75 CNS) [µM],TGI (UACC-62 melanoma) [µM],TGI (MOLT-4 leukemia) [µM],GI50 (OVCAR-3 ovarian) [µM],GI50 (SF-295 CNS) [µM],GI50 (M14 melanoma) [µM],GI50 (MOLT-4 leukemia) [µM],GI50 (NCI-H23 lung) [µM],GI50 (SK-MEL-2 melanoma) [µM],GI50 (SK-MEL-28 melanoma) [µM],GI50 (SNB-75 CNS) [µM],GI50 (UACC-62 melanoma) [µM],GI50 (OVCAR-8 ovarian) [µM]
C/C(=N\NS(=O)(=O)c1ccc(C)cc1)P(=O)(O)O,> 100,> 100,> 100,> 100,> 100,> 100,> 100,> 100,> 100,–,–,–,–,–,–,–,–,–,–,–
COc1ccccc1-c1cc(=O)c2cc3c(cc2[nH]1)OCO3,–,> 100,> 100,> 100,62.6,> 100,> 100,> 100,> 100,> 100,39.9,21.1,–,–,–,–,–,–,–,–
CO/N=C(\C)c1ccc(Nc2cc(-c3ccccc3)nc3ccc(OC)cc23)cc1,4.77,10.3,–,–,4.82,> 100,> 100,> 100,4.41,25.2,–,2.02,2.35,3.38,2.52,6.27,29.4,23,1.97,–
S=C(Nc1ccc(-c2nc3ccccc3[nH]2)cc1)Nc1ccc(-c2nc3ccccc3[nH]2)cc1,> 100,> 100,> 100,> 100,> 100,> 100,> 100,–,> 100,> 100,48.9,48.4,60.3,43.8,70.3,> 100,> 100,–,38.6,59.6
O=[P+](O)c1ccsc1,> 100,> 100,–,> 100,–,–,> 100,–,> 100,> 100,–,–,–,–,–,–,–,–,–,–
CCN(CC)c1ccc(C(O)C2=CC(=O)c3ccccc3C2=O)cc1 (centres undefined),4.57,3.02,2.75,–,7.45,3.71,2.6,5.57,3.34,> 100,1.21,2.23,2.1,0.44,1.33,1.57,1.21,1.87,1.65,–
O=C(CCN1CCN(c2ccccc2)CC1)N1CCc2c([nH]c3ccccc23)C1c1cccnc1 (centres undefined),31.2,57.7,30.7,30.4,–,30.4,29.1,53.3,–,51.1,–,–,–,–,–,–,–,–,–,–
CC(C)(C)c1cc(-n2c(-c3ccc(Cl)cc3)nc3cc(C(=O)Nc4ccc(Cl)cc4)ccc32)n[nH]1,–,> 100,23.2,> 100,> 100,9.58,> 100,26.4,> 100,–,3.63,2.93,–,–,4.86,2.89,64.2,7.08,2.75,9.03
O=C(c1ccccc1)C1OC1c1ccc([N+](=O)[O-])cc1 (centres undefined),12.9,14.1,17.8,> 100,46,34.9,> 100,72.7,42.5,–,3.84,4.76,2.98,–,2.84,5.88,24.8,2.92,11.3,4.71
Cn1c2c(c3ccc([N+](=O)[O-])cc3c1=O)C(=O)c1ccccc1-2,–,–,> 100,> 100,> 100,> 100,> 100,> 100,> 100,> 100,52.6,22.7,–,> 100,–,> 100,> 100,> 100,> 100,> 100
CC1=C(c2ccccc2)NC(=S)C(C)C(c2ccccc2)=N1 (centres undefined),–,70.4,–,> 100,> 100,–,> 100,> 100,> 100,54.1,–,–,–,–,–,–,–,–,–,–
CCC(=C/[C@H](C)C/C=C/C(C)=C/[C@@H](C)C(=O)[C@@H](C)[C@H](O)[C@@H](C)CC)/C=C/[C@@H]1OC(=O)C=C[C@H]1C,0.0103,4.03,< 0.01,1.41,–,< 0.01,1.58,< 0.0465,–,–,< 0.01,< 0.01,< 0.01,–,< 0.01,< 0.01,< 0.01,< 0.01,< 0.01,< 0.01
Oc1ccc(C(c2ccc(O)cc2)c2ccc(O)cc2)cc1,–,45.7,–,32.6,> 100,55,45,–,29.8,52.2,–,–,–,–,–,–,–,–,–,–
Nc1nnnn1CCO,> 100,> 100,> 100,> 100,> 100,> 100,> 100,> 100,> 100,–,–,–,–,–,–,–,–,–,–,–
C#Cc1c(/C=C/C(=O)OCC)ccc2ccccc12,46,47.9,40.6,> 100,45,–,39.7,40.4,27.5,26.1,16,13.3,18.9,10.7,20.1,–,13.7,10.1,11.6,35.1
CCOC(=O)C1c2[nH]c3ccccc3c2CCN1C(=O)c1ccc(OC)o1 (centres undefined),> 10,> 10,> 10,> 10,> 10,> 10,> 10,> 10,–,> 10,–,–,–,–,–,–,–,–,–,–
CCOC(=O)N1CCC(=O)C(CNC23CC4CC(CC(C4)C2)C3)C1 (centres undefined),–,> 100,–,44.5,> 100,> 100,32.1,–,> 100,38.9,–,–,–,–,–,–,–,–,–,–
